Measurements taken from patent US11447466B2, “Substituted indole compounds useful as inhibitors of TLR7/8/9” (BRISTOL-MYERS SQUIBB COMPANY, priority 2017, dated 2022).
pIC50: −log10 of the molar value.

Experiments:
Type in all cases: cell-based
human TLR7 = molecular target: T1, human TLR7 (Homo sapiens, UniProt Q9NYK1); assay: TLR7 inhibition reporter assay (HEK-Blue SEAP reporter, gardiquimod stimulation); conditions: HEK-Blue cells overexpressing human TLR7, SEAP reporter, gardiquimod 7.5 μM, 22 hour incubation
T1 construct: host or cells: HEK-Blue cells
T1 sequence (Q9NYK1 27-1049): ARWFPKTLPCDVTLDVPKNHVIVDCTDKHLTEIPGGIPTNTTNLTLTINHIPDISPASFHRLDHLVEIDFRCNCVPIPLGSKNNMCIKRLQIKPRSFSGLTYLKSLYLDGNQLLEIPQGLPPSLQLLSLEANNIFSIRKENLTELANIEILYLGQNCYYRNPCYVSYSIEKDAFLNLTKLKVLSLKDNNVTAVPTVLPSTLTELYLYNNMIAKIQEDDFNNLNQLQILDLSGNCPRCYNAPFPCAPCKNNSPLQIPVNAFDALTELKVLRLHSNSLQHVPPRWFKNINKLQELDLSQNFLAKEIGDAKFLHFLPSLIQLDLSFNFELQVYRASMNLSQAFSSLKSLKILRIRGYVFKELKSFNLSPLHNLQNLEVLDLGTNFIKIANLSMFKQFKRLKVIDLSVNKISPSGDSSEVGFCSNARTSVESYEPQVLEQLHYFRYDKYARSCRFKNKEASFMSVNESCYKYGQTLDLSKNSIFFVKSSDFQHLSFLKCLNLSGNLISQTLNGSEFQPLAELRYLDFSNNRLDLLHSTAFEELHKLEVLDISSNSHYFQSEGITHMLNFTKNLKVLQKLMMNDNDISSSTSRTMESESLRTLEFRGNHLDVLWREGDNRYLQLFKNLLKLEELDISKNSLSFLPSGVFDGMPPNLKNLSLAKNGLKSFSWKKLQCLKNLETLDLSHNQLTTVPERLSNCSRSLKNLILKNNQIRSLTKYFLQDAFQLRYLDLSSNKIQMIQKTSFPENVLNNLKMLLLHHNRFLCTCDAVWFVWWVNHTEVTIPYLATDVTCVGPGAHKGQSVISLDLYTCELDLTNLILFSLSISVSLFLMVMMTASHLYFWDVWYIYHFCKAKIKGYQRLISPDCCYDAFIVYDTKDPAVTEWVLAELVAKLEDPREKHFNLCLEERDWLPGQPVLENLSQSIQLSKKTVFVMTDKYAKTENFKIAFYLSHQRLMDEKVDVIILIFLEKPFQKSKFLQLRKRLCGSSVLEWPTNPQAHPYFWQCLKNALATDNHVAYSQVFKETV
Procedure, shortened: (§1)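 Compound treatment: 30 min, RT, 0.05 nM–50 μM final. Agonist: TLR7 gardiquimod 7.5 μM; TLR8 R848 15.9 μM; TLR9 ODN2006 5 nM. Incubation 22 h, 37 °C, 5% CO2. Readout SEAP, HEK-Blue Detection.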

human TLR8 = molecular target: T2, human TLR8 (Homo sapiens, UniProt Q9NR97); assay: TLR8 inhibition reporter assay (HEK-Blue SEAP reporter, R848 stimulation); conditions: HEK-Blue cells overexpressing human TLR8, SEAP reporter, R848 15.9 μM, 22 hour incubation
T2 construct: host or cells: HEK-Blue cells
T2 sequence (Q9NR97 27-1041): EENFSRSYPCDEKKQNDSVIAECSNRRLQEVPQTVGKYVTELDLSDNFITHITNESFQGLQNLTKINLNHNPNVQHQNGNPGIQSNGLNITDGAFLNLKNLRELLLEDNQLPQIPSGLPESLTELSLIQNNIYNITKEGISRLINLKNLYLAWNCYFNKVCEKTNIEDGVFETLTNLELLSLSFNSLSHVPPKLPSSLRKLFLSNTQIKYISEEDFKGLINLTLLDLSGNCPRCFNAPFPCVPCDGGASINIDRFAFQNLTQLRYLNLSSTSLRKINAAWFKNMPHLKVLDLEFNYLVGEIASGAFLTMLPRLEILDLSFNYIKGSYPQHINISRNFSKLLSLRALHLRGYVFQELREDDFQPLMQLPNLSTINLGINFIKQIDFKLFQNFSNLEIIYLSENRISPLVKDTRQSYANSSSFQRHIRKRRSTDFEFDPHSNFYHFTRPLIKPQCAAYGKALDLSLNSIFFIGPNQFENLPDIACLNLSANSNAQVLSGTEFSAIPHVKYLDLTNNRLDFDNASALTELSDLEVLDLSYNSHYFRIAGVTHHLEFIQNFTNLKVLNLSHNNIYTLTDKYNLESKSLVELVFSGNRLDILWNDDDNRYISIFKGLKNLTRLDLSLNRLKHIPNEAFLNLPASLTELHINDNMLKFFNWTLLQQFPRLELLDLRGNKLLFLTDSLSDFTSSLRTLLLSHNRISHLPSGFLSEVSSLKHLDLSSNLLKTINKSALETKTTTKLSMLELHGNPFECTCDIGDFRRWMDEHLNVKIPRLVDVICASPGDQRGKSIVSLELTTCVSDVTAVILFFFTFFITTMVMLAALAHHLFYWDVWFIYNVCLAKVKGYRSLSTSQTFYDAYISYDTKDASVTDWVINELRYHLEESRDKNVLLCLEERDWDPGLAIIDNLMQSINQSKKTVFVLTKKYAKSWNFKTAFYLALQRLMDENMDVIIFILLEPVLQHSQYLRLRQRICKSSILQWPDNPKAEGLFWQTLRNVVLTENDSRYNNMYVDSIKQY
Procedure, shortened: as §1

human TLR9 = molecular target: T3, human TLR9 (Homo sapiens, UniProt Q9NR96); assay: TLR9 inhibition reporter assay (HEK-Blue SEAP reporter, ODN2006 stimulation); conditions: HEK-Blue cells overexpressing human TLR9, SEAP reporter, ODN2006 5 nM, 22 hour incubation
T3 construct: host or cells: HEK-Blue cells
T3 sequence (Q9NR96 26-1032): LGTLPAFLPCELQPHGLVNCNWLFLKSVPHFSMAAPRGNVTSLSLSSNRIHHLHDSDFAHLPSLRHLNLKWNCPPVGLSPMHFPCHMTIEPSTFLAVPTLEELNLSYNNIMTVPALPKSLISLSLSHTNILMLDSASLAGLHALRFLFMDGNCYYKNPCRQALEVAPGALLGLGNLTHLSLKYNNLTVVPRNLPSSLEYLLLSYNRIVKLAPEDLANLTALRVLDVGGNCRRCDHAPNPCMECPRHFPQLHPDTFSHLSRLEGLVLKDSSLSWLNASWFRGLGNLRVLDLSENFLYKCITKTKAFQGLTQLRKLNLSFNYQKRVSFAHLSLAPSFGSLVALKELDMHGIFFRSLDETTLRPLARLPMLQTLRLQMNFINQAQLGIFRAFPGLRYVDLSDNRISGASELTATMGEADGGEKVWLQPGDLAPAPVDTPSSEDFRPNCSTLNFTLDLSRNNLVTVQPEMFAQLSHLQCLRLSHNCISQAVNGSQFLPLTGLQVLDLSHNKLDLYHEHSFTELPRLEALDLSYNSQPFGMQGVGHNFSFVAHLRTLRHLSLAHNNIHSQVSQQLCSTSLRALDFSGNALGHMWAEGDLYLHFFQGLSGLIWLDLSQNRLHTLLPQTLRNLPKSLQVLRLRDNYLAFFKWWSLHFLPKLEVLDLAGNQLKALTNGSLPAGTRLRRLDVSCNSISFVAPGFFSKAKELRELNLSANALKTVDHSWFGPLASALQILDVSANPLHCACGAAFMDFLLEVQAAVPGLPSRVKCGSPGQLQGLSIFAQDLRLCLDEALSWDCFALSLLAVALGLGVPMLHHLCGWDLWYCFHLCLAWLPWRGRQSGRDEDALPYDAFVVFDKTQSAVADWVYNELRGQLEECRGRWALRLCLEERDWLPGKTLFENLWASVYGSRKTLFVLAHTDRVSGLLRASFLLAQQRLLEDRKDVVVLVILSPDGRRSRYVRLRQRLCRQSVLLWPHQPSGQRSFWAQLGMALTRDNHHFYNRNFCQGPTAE
Procedure, shortened: as §1

SMILES | pIC50 (human TLR7) | pIC50 (human TLR8) | pIC50 (human TLR9)
Cc1cc(-c2[nH]c3ccc(C4CCN(C5COC5)CC4)cc3c2C(C)C)nn(C)c1=O [Example 189, 6-(3-isopropyl-5-(1-(oxetan-3-yl)piperidin-4-yl)-1H-indol-2-yl)-2,4-dimethylpyridazin-3(2H)-one] | 7.59 | 7.60 | 4.32
Cc1nc(-c2[nH]c3ccc(C4CCN(C5CCOC5)CC4)cc3c2C(C)C)cn(C)c1=O (stereo not drawn) [Example 190, 5-(3-isopropyl-5-(1-(tetrahydrofuran-3-yl)piperidin-4-yl)-1H-indol-2-yl)-1,3-dimethylpyrazin-2(1H)-one] | 7.59 | 7.27 | 5.64
Cc1cc(-c2[nH]c3ccc(C4CCN(C5CCOC5)CC4)cc3c2C(C)C)nn(C)c1=O (stereo not drawn) [Example 193, 6-(3-isopropyl-5-(1-(tetrahydrofuran-3-yl)piperidin-4-yl)-1H-indol-2-yl)-2,4-dimethylpyridazin-3(2H)-one] | 7.90 | 7.93 | 5.05
Cc1cc(-c2[nH]c3ccc(C4CCN(C5CCOCC5)CC4)cc3c2C(C)C)nn(C)c1=O [Example 194, 6-(3-isopropyl-5-(1-(tetrahydro-2H-pyran-4-yl)piperidin-4-yl)-1H-indol-2-yl)-2,4-dimethylpyridazin-3(2H)-one] | 7.99 | 8.20 | 5.53
Cc1cc(-c2[nH]c3ccc(C4CCN(Cc5ccnn5C)CC4)cc3c2C(C)C)cn(C)c1=O [Example 197, 5-(3-isopropyl-5-(1-((1-methyl-1H-pyrazol-5-yl)methyl)piperidin-4-yl)-1H-indol-2-yl)-1,3-dimethylpyridin-2(1H)-one] | 8.34 | 8.62 | 5.08
Cc1cc(-c2[nH]c3ccc(C4CCN(Cc5ncnn5C)CC4)cc3c2C(C)C)cn(C)c1=O [Example 198, 5-(3-isopropyl-5-(1-((1-methyl-1H-1,2,4-triazol-5-yl)methyl)piperidin-4-yl)-1H-indol-2-yl)-1,3-dimethylpyridin-2(1H)-one] | 8.04 | 7.87 | ≤ 4.30
Cc1cc(-c2[nH]c3ccc(C4CCN(C5CCC(F)(F)CC5)CC4)cc3c2C(C)C)cn(C)c1=O [Example 199, 5-(5-(1-(4,4-difluorocyclohexyl)piperidin-4-yl)-3-isopropyl-1H-indol-2-yl)-1,3-dimethylpyridin-2(1H)-one] | 8.72 | 8.38 | 5.81
Cc1cc(-c2[nH]c3ccc(C4CCN(CC5=NN=CC5)CC4)cc3c2C(C)C)cn(C)c1=O [Example 200, 5-(5-(1-((4H-pyrazol-3-yl)methyl)piperidin-4-yl)-3-isopropyl-1H-indol-2-yl)-1,3-dimethylpyridin-2(1H)-one] | 8.37 | 8.66 | 5.43

Other lines, results leading:

pIC50 (human TLR7) | pIC50 (human TLR8) | pIC50 (human TLR9) | SMILES
7.07 | 7.52 | 6.18 | Cc1nc(-c2[nH]c3ccc(C4CCN(C5CCCOC5)CC4)cc3c2C(C)C)cn(C)c1=O (stereo not drawn) [Example 187, 5-(3-isopropyl-5-(1-(tetrahydro-2H-pyran-3-yl)piperidin-4-yl)-1H-indol-2-yl)-1,3-dimethylpyrazin-2(1H)-one]
7.85 | 7.95 | 6.28 | Cc1cc(-c2[nH]c3ccc(C4CCN(C5CCCOC5)CC4)cc3c2C(C)C)nn(C)c1=O (stereo not drawn) [Example 188, 6-(3-isopropyl-5-(1-(tetrahydro-2H-pyran-3-yl)piperidin-4-yl)-1H-indol-2-yl)-2,4-dimethylpyridazin-3(2H)-one]
8.16 | 7.67 | 5.05 | Cc1cc(-c2[nH]c3ccc(C4CCN(C)CC4)cc3c2C(C)C)nn(C)c1=O [Example 191, 6-(3-isopropyl-5-(1-methylpiperidin-4-yl)-1H-indol-2-yl)-2,4-dimethylpyridazin-3(2H)-one]
8.19 | 7.92 | 5.55 | Cc1cc(-c2[nH]c3ccc(C4CCN(C(C)C)CC4)cc3c2C(C)C)nn(C)c1=O [Example 192, 6-(3-isopropyl-5-(1-isopropylpiperidin-4-yl)-1H-indol-2-yl)-2,4-dimethylpyridazin-3(2H)-one]
8.41 | 8.59 | 5.28 | Cc1cc(-c2[nH]c3ccc(C4CCN(Cc5ccn(C)n5)CC4)cc3c2C(C)C)cn(C)c1=O [Example 195, 5-(3-isopropyl-5-(1-((1-methyl-1H-pyrazol-3-yl)methyl)piperidin-4-yl)-1H-indol-2-yl)-1,3-dimethylpyridin-2(1H)-one]
8.52 | 8.62 | 5.30 | Cc1cc(-c2[nH]c3ccc(C4CCN(Cc5cnn(C)c5)CC4)cc3c2C(C)C)cn(C)c1=O [Example 196, 5-(3-isopropyl-5-(1-((1-methyl-1H-pyrazol-4-yl)methyl)piperidin-4-yl)-1H-indol-2-yl)-1,3-dimethylpyridin-2(1H)-one]
